{"source": "patent US11412737B2", "about": "“Mixtures of beflubutamid or optically enriched forms thereof with a second herbicide” (FMC Corporation, priority 2016, dated 2022)", "key": {"Annual bluegrass (POAAN)": {"system": "Annual bluegrass (POAAN)", "test": "post-emergence test, weed control", "format": "in vivo, Poa annua", "conditions": "post-emergent, 28 DAT, height 1-2 cm, rate g ai/ha by row: r7 94, r8 125, r9 188, r10 125, r11 250, r12 94+125, r13 125+125, r14 188+125, r15 94+250, r16 125+250, r17 188+250", "procedure": "(§1) Test compositions containing the test compounds were diluted with water to provide the appropriate test rate concentrations.\n(§2) For post-emergence testing, seeds of each species for each rate of application of each herbicide solution were planted in 7.5 cm×7.5 cm plastic pots filled with potting soil. The seeds were germinated and the resulting plants were allowed to grow in a greenhouse until they reached a growth stage, such as height, suitable for testing. Treatments were applied using compressed air in a track spray chamber at 30 gallons/acre (280 L/ha) using a TeeJet 8001E nozzle at 40 psi (2.76 bars). Pots of post-emergent treated plants were returned to the greenhouse and not watered for 24 hours after treatment. Thereafter they were regularly watered and fertilized for the duration of the test.\n(§3) The control of weeds was evaluated in each experimental test at 21 for wheat and 28 days after treatment (DAT) for all species. Data were analyzed using Minitab software at 95% confidence interval. The results, shown as an average of the replications, were compared with results observed in untreated control flats in the same tests. Percent control was determined by a method similar to the 0 to 100 rating system disclosed in “Research Methods in Weed Science,” 2nd ed., B. Truelove, Ed.; Southern Weed Science Society; Auburn University, Auburn, Ala., 1977. The rating system is as follows in Table 1."}, "Barnyardgrass (ECHCG)": {"system": "Barnyardgrass (ECHCG)", "test": "post-emergence test, weed control", "format": "in vivo, Echinochloa crus-galli", "conditions": "post-emergent, 28 DAT", "procedure": "as §1\nas §2, with “Treatments were applied using compressed air in a track spray chamber at 30 gallons/acre (280 L/ha) using a TeeJet 8001E nozzle at 40 psi (2.76 bars).” left out\nThe control of weeds was evaluated in each experimental test at 21 for wheat and 28 days after treatment (DAT) for all species. […] The rating system is as follows in Table 1."}, "Shattercane (SOBIA)": {"system": "Shattercane (SOBIA)", "test": "post-emergence test, weed control", "format": "in vivo", "conditions": "post-emergent, 28 DAT, height 8 cm; rate g ai/ha by row: r25 94, r26 125, r27 188, r28 125, r29 250, r30 94+125, r31 125+125, r32 188+125, r33 94+250, r34 125+250, r35 188+250", "procedure": "as §1, §2, §3"}, "Italian ryegrass (LOLMU)": {"system": "Italian ryegrass (LOLMU)", "test": "post-emergence test, weed control", "format": "in vivo, Lolium perenne. multiflorum", "conditions": "post-emergent, 28 DAT; for control of Italian rygrass (LOLMU): combination of both", "procedure": "as §1, §2, §3"}, "[1]": {"system": "Common lambsquarters (CHEAL)", "test": "pre-emergence test, weed control", "format": "in vivo, Chenopodium album", "conditions": "pre-emergent, 28 DAT", "procedure": "as §1\n(§4) For pre-emergence testing, four disposable fiber flats (6 inch by 10 inch) for each rate of application of each herbicide solution were filled with top soil, to which seeds of each species were planted in furrows made by a template pressed on the top of the soil. The furrows were covered with soil after planting the seed and were watered well before application of the test compounds.\n(§5) Fiber flats designated for treatment were placed in a spray chamber having a static platform and a movable sprayer and the height of the spray nozzle was 10.5 inches above the soil level. Once the sprayer was calibrated using water for spray volume of 30 gallons per acre, flats were sprayed with sprayer at a speed to receive a coverage equivalent of 30 gallons per acre. The application rates are those shown in the Tables below for the individual herbicidal solutions and the herbicide compositions of this invention. The pre-emergence flats were immediately placed in the greenhouse and watered lightly after treatment. Thereafter they were regularly watered and fertilized for the duration of the test.\nas §3"}, "Silky windgrass (APSEV)": {"system": "Silky windgrass (APSEV)", "test": "post-emergence test, weed control", "format": "in vivo", "conditions": "post-emergent, 28 DAT, height 1-1.5 cm, rate g ai/ha by row: r25 94, r26 125, r27 188, r28 125, r29 250, r30 94+125, r31 125+125, r32 188+125, r33 94+250, r34 125+250, r35 188+250"}, "Palmer amaranth (AMAPA)": {"system": "Palmer amaranth (AMAPA)", "test": "pre-emergence test, weed control", "format": "in vivo, Amaranthus palmeri", "conditions": "pre-emergent, 28 DAT; BFL at 125 g/ha, DCI at 125 g/ha, combination of both", "procedure": "as §1, §4, §5, §3"}, "[2]": {"system": "Littleseed canarygrass (PHAMI)", "test": "post-emergence test, weed control", "format": "in vivo, Phalaris minor", "conditions": "post-emergent, 28 DAT, height 7-8 cm, rate g ai/ha by row: r25 94, r26 125, r27 188, r28 125, r29 250, r30 94+125, r31 125+125, r32 188+125, r33 94+250, r34 125+250, r35 188+250", "procedure": "as §1, §2, §3"}, "Wild oat (AVEFA)": {"system": "Wild oat (AVEFA)", "test": "post-emergence test, weed control", "format": "in vivo, Avena fatua", "conditions": "post-emergent, 28 DAT; for percentage of weed control, AVEFA: height 11 cm, rate g ai/ha by row: r25 94, r26 125, r27 188, r28 125, r29 250, r30 94+125, r31 125+125, r32 188+125, r33 94+250, r34 125+250, r35 188+250; for control of wild oats (AVEFA): DCI at 250 g/ha", "procedure": "as §1, §2, §3"}, "[3]": {"conditions": "BFL at 125 g/ha, DCI at 125 g/ha, combination of both"}}, "data": [{"smiles": "CCC(Oc1ccc(F)c(C(F)(F)F)c1)C(=O)NCc1ccccc1", "note": "(racemic) [BFL, 2-[4-fluoro-3-(trifluoromethyl)phenoxy]-N-(phenylmethyl)butanamide]", "values": [{"measurement": "percentage of weed control, POAAN", "setting": "Annual bluegrass (POAAN); 94 g ai/ha", "value": 0, "unit": "%"}, {"measurement": "percentage of weed control, POAAN", "setting": "Annual bluegrass (POAAN); 188 g ai/ha", "value": 2, "unit": "%"}, {"measurement": "percentage of weed control, Barnyardgrass ECHCG", "setting": "Barnyardgrass (ECHCG); COC 1%, rate g ai/ha by row: r5 94, r6 125, r7 250, r8 1.25, r9 2.5, r10 5, r11 94+1.25, r13 125+1.25, r15 94+2.5, r17 125+2.5, r19 94+5, r21 125+5", "value": 5, "unit": "%"}, {"measurement": "control of barnyardgrass (ECHCG)", "setting": "Barnyardgrass (ECHCG); [3]", "value": 6, "unit": "%"}, {"measurement": "percentage of weed control, SOBIA", "setting": "Shattercane (SOBIA)", "value": 0, "unit": "%"}, {"measurement": "percentage of weed control, LOLMU", "setting": "Italian ryegrass (LOLMU); height 5-6 cm, rate g ai/ha by row: r25 94, r26 125, r27 188, r28 125, r29 250, r30 94+125, r31 125+125, r32 188+125, r33 94+250, r34 125+250, r35 188+250", "value": 0, "unit": "%"}, {"measurement": "control of Italian rygrass (LOLMU)", "setting": "Italian ryegrass (LOLMU); BFL at 188 g/ha, DCI at 125 g/ha", "value": 0, "unit": "%"}, {"measurement": "control of Italian rygrass (LOLMU)", "setting": "Italian ryegrass (LOLMU); DCI at 250 g/ha, BFL at 125 g/ha", "value": 0, "unit": "%"}, {"measurement": "control of lambsquarters (CHEAL)", "setting": "[1]; [3]", "value": 42, "unit": "%"}, {"measurement": "percentage of weed control, CHEAL", "setting": "[1]; rate g ai/ha by row: r4 94, r5 50, r6 100, r7 52.5, r8 70, r9 94+52.5, r10 94+70, r11 50+52.5, r12 50+70, r13 100+52.5, r14 100+70", "value": 16, "unit": "%"}, {"measurement": "percentage of weed control, APSEV", "setting": "Silky windgrass (APSEV); 94 g ai/ha", "value": 0, "unit": "%"}, {"measurement": "percentage of weed control, APSEV", "setting": "Silky windgrass (APSEV); 188 g ai/ha", "value": 5, "unit": "%"}, {"measurement": "control of Palmer amaranth (AMAPA)", "setting": "Palmer amaranth (AMAPA)", "value": 69, "unit": "%"}, {"measurement": "percentage of weed control, PHAMI", "setting": "[2]; 94 g ai/ha", "value": 0, "unit": "%"}, {"measurement": "percentage of weed control, PHAMI", "setting": "[2]; 188 g ai/ha", "value": 1, "unit": "%"}, {"measurement": "percentage of weed control, AVEFA", "setting": "Wild oat (AVEFA); 94 g ai/ha", "value": 0, "unit": "%"}, {"measurement": "percentage of weed control, AVEFA", "setting": "Wild oat (AVEFA); 188 g ai/ha", "value": 5, "unit": "%"}, {"measurement": "control of wild oats (AVEFA)", "setting": "Wild oat (AVEFA); BFL at 125 g/ha, combination of both", "value": 0, "unit": "%"}, {"measurement": "control of wild oats", "setting": "Wild oat (AVEFA); BFL at 187.5 g, PYX at 90 g, combination of both", "value": 15, "unit": "%"}, {"measurement": "control of wild oats (AVEFA)", "setting": "Wild oat (AVEFA); BFL at 188 g/ha, combination of both", "value": 5, "unit": "%"}]}]}
